Here are results for one compound from publication PMC7392643, “Antibiotic fidaxomicin is an RdRp inhibitor as a potential new therapeutic agent against Zika virus” (BMC Medicine, 2020).

For assay [1], the system named is ZIKV (ZG-01 strain). In words: Antiviral efficacy in ZIKV-infected Ifnar1-/- mice, i.v. dosing. Format: in vivo. As to conditions: for Median survival: vehicle 8.5 days. As to the method:
RNA from cell supernatants or from mouse tissues (brain and testis) was prepared with RaPure Viral RNA/DNA Kit (Magen, Guangzhou, China) according to the manufacturer’s instructions. The first-strand cDNA was synthesized using random hexamer primers with the Revert Aid Reverse Transcription Kit (Thermo Fisher Scientific, Rockford, IL, USA), and real-time PCR was carried out by using LightCycler® 480 Probes Master (2× reaction mix buffer including DNA polymerase) (no. 04887301001, Roche, Basel, Switzerland). Virus concentration was determined by interpolation onto an internal standard curve made up of a 7-point dilution series of in vitro transcribed RNA and tissue weight to quantify ZIKV RNA as copies/gram tissue. Primer sets used for real-time PCR are shown in Additional file 1: Table S1. Reverse transcription and real-time PCR were performed for at least three times.
For ZIKV infection and antiviral treatment studies, mice were randomly assigned to groups (n = 12–13/group). Male and female 5-week-old Ifnar1^−/− mice were infected subcutaneously (s.c.) with ZIKV (ZG-01 strain, 2 × 10^4 PFU for each mouse) 1 h before administration of treatment agents. Compounds were prepared in sterile pharmaceutical dosage form of 1:10:89 (DMSO : Tween80 : 5% glucose solution) less than 4 h prior to administration in mice. Fidaxomicin was administered by tail vein injection daily at 20 or 10 mg/kg for 7 days. The identity of the treatment groups was blinded to the researcher administering treatments. Survival, disease signs, and the weight of each mouse were recorded on day 0 and then every other day from 1 to 15 days post-infection (dpi). Mice were humanely euthanized if they could no longer right themselves or were unresponsive to stimuli. Tissues, including the brains and testes, were collected from each animal. Part of each tissue was fixed in 4% paraformaldehyde or in PBS for at least 24 h prior to paraffin embedding and sectioning for use in immunohistochemistry analysis, immunofluorescence analysis, or analysis of viral RNA. Total RNA was extracted from tissues, and ZIKV RNA was quantified as described above.
Immunofluorescence assay was carried out on paraffin-embedded mouse brain and testis tissue slides, incubated with an anti-ZIKV E antibody (1:500, BioFront Technologies, Tallahassee, FL, USA). The secondary antibody was Rhodamine Red™-X (RRX) AffiniPure F (ab')2 Fragment Goat Anti-Mouse IgG (1:500, AB_2338781, Jackson ImmunoResearch Laboratories, Inc. West Grove, PA, USA), and 4-,6-diamidino-2-phenylindole (DAPI, 1:1000, Sangon Biotech, Shanghai, China) was used to stain the nuclei. The immunofluorescent images were taken with an inverted microscope (Carl Zeiss, Oberkochen, Germany). For histologic staining, the fixed tissues were dehydrated, embedded in paraffin, sectioned, rehydrated, and stained with hematoxylin and eosin (H/E). The H/E-stained sections were evaluated for viral-induced neuropathology. […] histological examination was performed by a board-certified veterinary pathologist. Each slide was auto scanned by Axio Scan Z1 (Carl Zeiss, Oberkochen, Germany).

The test system of assay [2] is ZIKV MR766 strain. Nature of the assay: In vitro antiviral assay, plaque assay, ZIKV MR766. Format: cell-based. The settings on record: Zika virus, 48 h.
Experimental: Various cell lines, including SNB19 (6 × 10^4/well, 10% FBS DMEM), A172 (7 × 10^4/well, 10% FBS DMEM), Vero (6 × 10^4/well 10% FBS DMEM), Huh7 (7 × 10^4/well, 10% FBS DMEM), HUVECs (7 × 10^4/well, 15% FBS M199 medium supplemented with 2 mM L-glutamine, 0.02 mg/mL endothelial cell growth supplement, and 0.05 mg/mL heparin), and A549 (6 × 10^4/well, 5% FBS DMEM), were plated in 12-well plates and allowed to attach overnight, followed by infection with ZIKV (ZG-01 strain or MR766 strain, respectively, at indicated MOI) in the presence of different concentrations of fidaxomicin, ribavirin, or vehicle control for 1 h, followed by two washes with 1 × PBS and incubated with fresh medium (without virus) consisting of corresponding concentrations of the compounds for further 48 h. The cell supernatants were collected to quantify ZIKV infection by plaque assay as previously described [47] or by RT-qPCR.

As for `CCc1c(Cl)c(O)c(Cl)c(O)c1C(=O)O[C@H]1[C@H](O)[C@H](OC)[C@H](OC/C2=C\C=C\C[C@H](O)/C(C)=C/[C@H](CC)[C@@H](O[C@@H]3OC(C)(C)[C@@H](OC(=O)C(C)C)[C@H](O)[C@@H]3O)/C(C)=C/C(C)=C/C[C@@H]([C@@H](C)O)OC2=O)O[C@@H]1C` [Fidaxomicin], the values for the Median survival in assay [1] (10 mg/kg i.v. daily for 7 days) and in assay [1] (20 mg/kg i.v. daily for 7 days) were 14 days and “over 15 days”, respectively. Also, in assay [1] (20 mg/kg/day, between 8 and 15 dpi, vs vehicle), the body weight loss entry is reported as “obvious protection from weight loss”. Further, in assay [1] (10 and 20 mg/kg vs vehicle), the “ZIKV load in the brains and testes (immunostaining of ZIKV E)” value is given as “reduced”. The “viral RNA levels in the brain and testis” value in assay [1] (15 dpi, 10 and 20 mg/kg groups, RT-qPCR) is recorded as “significantly decreased”. Also, the “neuronal necrosis in hippocampal pyramidal cells” value in assay [1] (H/E staining) is “remarkably reduced”. Besides, the “pathologic damages in the cerebra” value in assay [1] (both treatment groups vs vehicle, H/E staining) is listed as “remarkably alleviated”. In addition, the “number of neurological signs (paralysis, hunching)” value in assay [1] (both treatment groups, dose-dependent) is listed as “progressive decrease”. Also, in assay [1] (both treatment groups, p = 0.0090 and p < 0.0001), the “perivascular cuffing of vessels in cerebra” value is on record as “significant decrease”. In addition, the “mice protected from mortality” value in assay [1] (high-dose group (20 mg/kg i.v. daily for 7 days)) is listed as “nine out of 13”. Also, the “effective therapeutic doses against ZIKV” value in assay [1] (mice, i.v.) was 10 to 20 mg/kg. Moreover, the “ZIKV E protein in brain and testis tissues (western blotting)” value in assay [1] (vs vehicle control) is recorded as “significant suppressive effect”. For the same compound, the EC50 came out at 13 ± 4.4 µM in assay [2] (A549 cells); 7.3 ± 2.5 µM in assay [2] (Huh-7, Huh7 cells); 6.8 ± 1.2 µM in assay [2] (SNB-19, SNB19 cells); 12.4 ± 3 µM in assay [2] (Vero cells). The EC90 in assay [2] (A549 cells) was 42.2 ± 4.6 µM; in assay [2] (Huh-7, Huh7 cells), 16.2 ± 3.9 µM; in assay [2] (SNB-19, SNB19 cells) it was 9.5 ± 1.5 µM; in assay [2] (Vero cells), 45.2 ± 6.2 µM.

As usually defined, the EC50 is the concentration giving half of the maximal effect. A low value points to an effect from little substance. One may read the EC90 as the concentration at which the effect reaches the 90% level.
